For twelve compounds, TGI results are on record in PubChem BioAssay (NCI).

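Briefly, cells in 96-well plates were exposed to five compound concentrations for 48 h, and endpoints were estimated by linear interpolation. TGI marks complete inhibition of growth.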 Bounds are passed on as bounds.

Common to all, as to test: NCI anticancer screen, dose series, 48 h
For assay [1], the system named is SK-MEL-5 melanoma.
For assay [2], the system named is SW-620 colon.
The subject of assay [3] is HOP-62 NSCLC.
In assay [4] the test system is SK-MEL-28 melanoma.
Assay [5] deals with 786-0 renal.
Assay [6] relates to K-562 leukemia.
Assay [7] concerns A498 renal.
Assay [8] concerns OVCAR-4 ovarian.
Assay [9] has as its system RXF 393 renal.
For assay [10], the system named is DU-145 prostate.
Assay [11] has as its system M14 melanoma.

As to `CCOC(=O)c1ccc(C(=O)/C(C(C)=O)=C2\CCCN2C)n1C`, the TGI in [1], in [2], in [3], in assay [4], in assay [5] and in assay [6] was more than 100 µM in each case. Further, the TGI in [7], in assay [8], in assay [9], in assay [10] and in [11] was more than 100 µM throughout.

In the case of `COc1ccc(C(SCCO)(c2ccccc2)c2ccccc2)cc1`, the TGI was 21.7 µM in assay [1]; 81.8 µM in assay [2]; 37.9 µM in assay [3]; 33.6 µM in assay [4]; 27 µM in assay [5]; more than 100 µM in assay [6]. In addition, the TGI in assay [7] came out at 33.3 µM; in assay [8] it was 31.4 µM; in assay [9] it was 41 µM; in assay [10], 27 µM; in assay [11], 21.3 µM.

On to `CC(=O)N(O)[C@@H]1CC[C@H](n2cnc3c(N)ncnc32)C1`, for which the TGI in [1], in assay [2], in assay [3], in assay [4], in assay [5] and in assay [6] was more than 100 µM in each case. The TGI in [7], in assay [8], in assay [9], in assay [10] and in [11] was more than 100 µM in each case.

On to `O=C/C=C/c1ccco1`, for which the TGI in assay [1], in [2], in [3], in [4], in [5] and in assay [6] was more than 100 µM throughout. Besides, the TGI in assay [7], in assay [8], in assay [9], in assay [10] and in assay [11] was more than 100 µM in each case.

In the case of `CN(C)c1nncc2[nH]cnc12`, the TGI in assay [1], in assay [2], in [3], in assay [4], in [5] and in [6] was more than 100 µM in each case. Moreover, the TGI in assay [7], in [9], in [10] and in [11] was more than 100 µM each time.

For the compound `N#C/C(=C\c1cc(Cl)cc(Cl)c1)c1ccccn1`, the TGI in [1], in [2], in assay [3], in assay [4], in assay [5] and in assay [6] was more than 100 µM each time. The TGI is 8.25 µM in assay [7]; more than 100 µM in [8]; 47.2 µM in [9]; more than 100 µM in assay [10]; more than 100 µM in assay [11].

Take `O=C(/C=C/c1ccc(/C=C/C(=O)c2ccc(O)cc2)cc1)c1ccc(O)cc1`: the TGI in assay [1], in assay [2], in [3], in assay [4], in assay [5] and in [6] was more than 100 µM each time. Moreover, the TGI in assay [7], in assay [9], in assay [10] and in assay [11] was more than 100 µM each time.

With `CSc1ccc(NC(=S)NN(C)C)cc1`, the TGI in assay [1], in assay [2], in [3], in [4], in [5] and in assay [6] was more than 10 µM throughout. In addition, the TGI in [7], in assay [8], in assay [9], in assay [10] and in [11] was more than 10 µM each time.

Consider `Cc1cc(NC[C@H](O)[C@H](O)[C@H](O)CO)c(Sc2cc(=O)[nH]c(=O)[nH]2)cc1C`, for which the TGI in assay [1], in assay [2], in assay [3], in [4], in assay [5] and in [6] was more than 62.5 µM each time. The TGI in [7], in assay [8], in [9], in [10] and in assay [11] was more than 62.5 µM each time.

Take `O=C1/C(=C/c2ccccc2O)N=C(c2ccccc2)N1c1nc2ccccc2s1`: the TGI in assay [1] is 23.3 µM; in [2], more than 100 µM; in assay [3] it was more than 100 µM; in assay [4] it was more than 100 µM; in assay [5], 53.8 µM; in [6] it was more than 100 µM. Further, the TGI in [7] is 53.1 µM; in assay [8] it was more than 100 µM; in assay [9], more than 100 µM; in assay [10], more than 100 µM; in assay [11] it was 85.6 µM.

With `Brc1ccc2c([C@H]3CN[C@@H](c4c[nH]c5cc(Br)ccc45)CN3)c[nH]c2c1`, the TGI was determined as 15.6 µM in assay [1]; 3.28 µM in assay [2]; 23.8 µM in assay [3]; 27.2 µM in [4]; 3.18 µM in [5]; 4.02 µM in assay [6]. Besides, the TGI was 3.6 µM in assay [7]; 4.69 µM in assay [8]; 6.6 µM in assay [9]; 9.98 µM in assay [10]; 5.91 µM in [11].

As for `Cc1noc2nnn(-c3ccc(Cl)cc3)c(=O)c12`, the TGI was determined as 13 µM in assay [1]; 5.41 µM in assay [2]; 29.7 µM in [3]; 25.5 µM in assay [4]; 8.33 µM in assay [5]; 11.2 µM in assay [6]. The TGI in assay [7] worked out at 27.1 µM; in assay [8], 57.3 µM; in assay [9] it was 4.79 µM; in assay [10] it was 14.3 µM; in assay [11], 25.4 µM.
